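Test compounds were applied to cells in 96-well plates for 48 hours at 5 doses. GI50 is the concentration that inhibits growth by half. TGI: concentration producing complete growth inhibition.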
Columns and labels:
Assay in all cases: NCI anticancer screen, dose series, 48 h; in the data active = GI50 below about 0.43 µM; inactive = the rest
HCC-2998 colon = system: HCC-2998 colon
HCT-15 colon = system: HCT-15 colon
TK-10 renal = system: TK-10 renal
UACC-257 melanoma = system: UACC-257 melanoma
SK-OV-3 ovarian = system: SK-OV-3 ovarian
OVCAR-8 ovarian = system: OVCAR-8 ovarian
EKVX NSCLC = system: EKVX NSCLC
ACHN renal = system: ACHN renal
UO-31 renal = system: UO-31 renal
T-47D breast = system: T-47D breast
SN12C renal = system: SN12C renal
HS 578T breast = system: HS 578T breast
NCI/ADR-RES ovarian = system: NCI/ADR-RES ovarian
A549 NSCLC = system: A549 NSCLC
IGROV1 ovarian = system: IGROV1 ovarian
SF-295 CNS = system: SF-295 CNS
MDA-MB-435 = system: MDA-MB-435
HOP-92 NSCLC = system: HOP-92 NSCLC
MDA-MB-231 breast = system: MDA-MB-231 breast
BT-549 breast = system: BT-549 breast
CCRF-CEM leukemia = system: CCRF-CEM leukemia
786-0 renal = system: 786-0 renal
COLO 205 colon = system: COLO 205 colon
SF-539 CNS = system: SF-539 CNS
PC-3 prostate = system: PC-3 prostate
OVCAR-5 ovarian = system: OVCAR-5 ovarian
K-562 leukemia = system: K-562 leukemia
DU-145 prostate = system: DU-145 prostate
OVCAR-3 ovarian = system: OVCAR-3 ovarian
NCI-H226 lung = system: NCI-H226 lung
HL-60(TB) leukemia = system: HL-60(TB) leukemia
SK-MEL-2 melanoma = system: SK-MEL-2 melanoma
UACC-62 melanoma = system: UACC-62 melanoma
U251 CNS = system: U251 CNS
HOP-62 NSCLC = system: HOP-62 NSCLC
LOX IMVI melanoma = system: LOX IMVI melanoma
HCT-116 colon = system: HCT-116 colon
SNB-19 CNS = system: SNB-19 CNS
SK-MEL-28 melanoma = system: SK-MEL-28 melanoma
CAKI-1 renal = system: CAKI-1 renal
MOLT-4 leukemia = system: MOLT-4 leukemia
M14 melanoma = system: M14 melanoma
NCI-H522 lung = system: NCI-H522 lung
OVCAR-4 ovarian = system: OVCAR-4 ovarian
SF-268 CNS = system: SF-268 CNS
MALME-3M melanoma = system: MALME-3M melanoma
NCI-H460 lung = system: NCI-H460 lung
SK-MEL-5 melanoma = system: SK-MEL-5 melanoma
NCI-H23 lung = system: NCI-H23 lung
MCF7 breast = system: MCF7 breast
SW-620 colon = system: SW-620 colon
HT29 colon = system: HT29 colon
RXF 393 renal = system: RXF 393 renal
SNB-75 CNS = system: SNB-75 CNS
KM12 colon = system: KM12 colon
A498 renal = system: A498 renal
RPMI-8226 leukemia = system: RPMI-8226 leukemia

CCCS(=O)(=O)Nc1ccc(F)c(C(=O)c2c[nH]c3ncc(-c4ccc(OCCCC5CCCCN5)nc4)cc23)c1F (stereo not drawn)
2.82 µM: TGI (HS 578T breast)
0.0967 µM: TGI (UACC-257 melanoma)
10.7 µM: TGI (T-47D breast)
> 100 µM: TGI (HCC-2998 colon) | TGI (HCT-15 colon) | TGI (TK-10 renal) | TGI (SK-OV-3 ovarian) | TGI (OVCAR-8 ovarian) | TGI (EKVX NSCLC) | TGI (ACHN renal) | TGI (UO-31 renal) | TGI (SN12C renal) | TGI (NCI/ADR-RES ovarian) | TGI (A549 NSCLC) | TGI (IGROV1 ovarian) | TGI (SF-295 CNS) | TGI (MDA-MB-435)
inactive: GI50 (HCC-2998 colon) > 100 µM | GI50 (HCT-15 colon) > 100 µM | GI50 (TK-10 renal) 7.79 µM | GI50 (SK-OV-3 ovarian) 0.875 µM | GI50 (OVCAR-8 ovarian) 9.63 µM | GI50 (EKVX NSCLC) > 100 µM | GI50 (ACHN renal) 16.9 µM | GI50 (UO-31 renal) > 100 µM | GI50 (T-47D breast) 1.28 µM | GI50 (SN12C renal) 2.14 µM | GI50 (HS 578T breast) 0.493 µM | GI50 (NCI/ADR-RES ovarian) > 100 µM | GI50 (A549 NSCLC) > 100 µM | GI50 (IGROV1 ovarian) 0.865 µM | GI50 (SF-295 CNS) 3.97 µM
active: GI50 (UACC-257 melanoma) 0.0136 µM | GI50 (MDA-MB-435) 0.03 µM

O=C1Cc2cc3ccccc3nc2-c2ccccc2N1
90.4 µM: TGI (HCC-2998 colon)
> 100 µM: TGI (HOP-92 NSCLC) | TGI (MDA-MB-231 breast) | TGI (HCT-15 colon) | TGI (BT-549 breast) | TGI (CCRF-CEM leukemia) | TGI (TK-10 renal) | TGI (UACC-257 melanoma) | TGI (SK-OV-3 ovarian) | TGI (786-0 renal) | TGI (OVCAR-8 ovarian) | TGI (COLO 205 colon) | TGI (EKVX NSCLC) | TGI (ACHN renal) | TGI (SF-539 CNS) | TGI (PC-3 prostate) | TGI (OVCAR-5 ovarian) | TGI (K-562 leukemia) | TGI (UO-31 renal) | TGI (DU-145 prostate) | TGI (T-47D breast) | TGI (OVCAR-3 ovarian) | TGI (NCI-H226 lung) | TGI (HL-60(TB) leukemia) | TGI (SN12C renal) | TGI (SK-MEL-2 melanoma) | TGI (UACC-62 melanoma) | TGI (U251 CNS) | TGI (HOP-62 NSCLC) | TGI (LOX IMVI melanoma) | TGI (SNB-19 CNS) | TGI (SK-MEL-28 melanoma) | TGI (HS 578T breast) | TGI (NCI/ADR-RES ovarian) | TGI (A549 NSCLC) | TGI (CAKI-1 renal) | TGI (MOLT-4 leukemia) | TGI (M14 melanoma) | TGI (NCI-H522 lung) | TGI (OVCAR-4 ovarian) | TGI (IGROV1 ovarian) | TGI (SF-268 CNS) | TGI (SF-295 CNS) | TGI (MALME-3M melanoma) | TGI (MDA-MB-435) | TGI (NCI-H460 lung) | TGI (SK-MEL-5 melanoma) | TGI (NCI-H23 lung) | TGI (MCF7 breast) | TGI (SW-620 colon) | TGI (HT29 colon) | TGI (RXF 393 renal) | TGI (KM12 colon) | TGI (A498 renal)
65.7 µM: TGI (SNB-75 CNS)
62.2 µM: TGI (HCT-116 colon)

CCn1cc(C(=O)O)c(=O)c2cc(F)c(N3CCN(S(=O)(=O)c4ccc(Cl)cc4Cl)CC3)cc21
28 µM: TGI (NCI/ADR-RES ovarian)
3.73 µM: TGI (NCI-H522 lung)
5.77 µM: TGI (UO-31 renal)
4.8 µM: TGI (CAKI-1 renal)
5.17 µM: TGI (HCC-2998 colon)
7.89 µM: TGI (BT-549 breast)
5.97 µM: TGI (NCI-H23 lung)
3.42 µM: TGI (UACC-62 melanoma)
5.1 µM: TGI (COLO 205 colon)
5.08 µM: TGI (IGROV1 ovarian)
5.68 µM: TGI (RXF 393 renal)
7.68 µM: TGI (ACHN renal)
5.22 µM: TGI (HOP-92 NSCLC)
10.8 µM: TGI (M14 melanoma)
7.59 µM: TGI (RPMI-8226 leukemia)
7.88 µM: TGI (NCI-H226 lung)
> 100 µM: TGI (HCT-15 colon) | TGI (CCRF-CEM leukemia) | TGI (OVCAR-5 ovarian) | TGI (K-562 leukemia) | TGI (SN12C renal) | TGI (HCT-116 colon) | TGI (A549 NSCLC) | TGI (MOLT-4 leukemia) | TGI (OVCAR-4 ovarian) | TGI (SF-268 CNS) | TGI (SW-620 colon) | TGI (HT29 colon) | TGI (KM12 colon)
9.95 µM: TGI (HOP-62 NSCLC)
4.17 µM: TGI (MALME-3M melanoma)
7.66 µM: TGI (HS 578T breast)
30 µM: TGI (A498 renal)
5.79 µM: TGI (OVCAR-3 ovarian)
inactive: GI50 (HOP-92 NSCLC) 1.22 µM | GI50 (MDA-MB-231 breast) 1.88 µM | GI50 (RPMI-8226 leukemia) 2.55 µM | GI50 (HCC-2998 colon) 2.29 µM | GI50 (HCT-15 colon) 2.82 µM | GI50 (BT-549 breast) 2.64 µM | GI50 (CCRF-CEM leukemia) 3.03 µM | GI50 (TK-10 renal) 4.02 µM | GI50 (UACC-257 melanoma) 2.65 µM | GI50 (SK-OV-3 ovarian) 3 µM | GI50 (786-0 renal) 3.19 µM | GI50 (OVCAR-8 ovarian) 3.3 µM | GI50 (COLO 205 colon) 2.44 µM | GI50 (ACHN renal) 2.62 µM | GI50 (SF-539 CNS) 1.92 µM | GI50 (PC-3 prostate) 2.43 µM | GI50 (OVCAR-5 ovarian) 3.43 µM | GI50 (K-562 leukemia) 4 µM | GI50 (UO-31 renal) 2.2 µM | GI50 (DU-145 prostate) 2.81 µM | GI50 (T-47D breast) 3.11 µM | GI50 (OVCAR-3 ovarian) 2.54 µM | GI50 (NCI-H226 lung) 2.6 µM | GI50 (HL-60(TB) leukemia) 2.22 µM | GI50 (SN12C renal) 2.77 µM | GI50 (SK-MEL-2 melanoma) 2.75 µM | GI50 (UACC-62 melanoma) 1.62 µM | GI50 (U251 CNS) 3.3 µM | GI50 (HOP-62 NSCLC) 3.08 µM | GI50 (LOX IMVI melanoma) 1.48 µM | GI50 (HCT-116 colon) 3.56 µM | GI50 (SNB-19 CNS) 3.07 µM | GI50 (SK-MEL-28 melanoma) 3.22 µM | GI50 (HS 578T breast) 2.53 µM | GI50 (NCI/ADR-RES ovarian) 3.28 µM | GI50 (A549 NSCLC) 2.89 µM | GI50 (CAKI-1 renal) 2.01 µM | GI50 (MOLT-4 leukemia) 3.55 µM | GI50 (M14 melanoma) 3.24 µM | GI50 (NCI-H522 lung) 1.81 µM | GI50 (OVCAR-4 ovarian) 2.58 µM | GI50 (IGROV1 ovarian) 2.33 µM | GI50 (SF-268 CNS) 3.86 µM | GI50 (MALME-3M melanoma) 1.94 µM | GI50 (MDA-MB-435) 1.97 µM | GI50 (NCI-H460 lung) 3.13 µM | GI50 (SK-MEL-5 melanoma) 1.87 µM | GI50 (NCI-H23 lung) 2.33 µM | GI50 (MCF7 breast) 2.95 µM | GI50 (SW-620 colon) 3.91 µM | GI50 (HT29 colon) 3.63 µM | GI50 (RXF 393 renal) 2.08 µM | GI50 (KM12 colon) 3.42 µM | GI50 (A498 renal) 3 µM
29 µM: TGI (OVCAR-8 ovarian)
8.94 µM: TGI (SK-OV-3 ovarian)
5.15 µM: TGI (HL-60(TB) leukemia)
10.7 µM: TGI (PC-3 prostate)
14.7 µM: TGI (U251 CNS)
15.9 µM: TGI (NCI-H460 lung)
3.08 µM: TGI (LOX IMVI melanoma)
15.2 µM: TGI (MCF7 breast)
13.7 µM: TGI (SK-MEL-28 melanoma)
7.93 µM: TGI (UACC-257 melanoma)
23 µM: TGI (TK-10 renal)
5.8 µM: TGI (SK-MEL-2 melanoma)
9.71 µM: TGI (T-47D breast)
6.75 µM: TGI (DU-145 prostate)
14.9 µM: TGI (786-0 renal)
4.44 µM: TGI (MDA-MB-435)
3.93 µM: TGI (SK-MEL-5 melanoma)
4.7 µM: TGI (MDA-MB-231 breast)
4.07 µM: TGI (SF-539 CNS)
20.6 µM: TGI (SNB-19 CNS)

Reference: PubChem BioAssay (NCI)
